Legend:
[1] = target: benzodiazepine binding site on GABAA receptors (rat cerebral cortex membranes); assay: In vitro inhibition of 3H-flunitrazepam (3H-FNM) binding; settings: inhibition of specific binding of 3H-FNM (1 nM), cerebral cortex membranes from male Wistar rats, 40 min at 2° C.
Procedure: In Vitro Inhibition of ^3H-flunitrazepam (^3H-FNM) Binding
The GABA recognition site and the benzodiazepine modulatory unit can selectively be labelled with ^3H-flunitrazepam.
Preparations are performed at 0-4° C. unless otherwise indicated. Cerebral cortex from male Wistar rats (150-200 g) is homogenised for 5-10 sec in 20 ml Tris-HCl (30 mM, pH 7.4) using an Ultra-Turrax homogeniser. The suspension is centrifuged at 27,000×g for 15 min and the pellet is washed three times with buffer (centrifuged at 27,000×g for 10 min). The washed pellet is homogenized in 20 ml of buffer and incubated on a water bath (37° C.) for 30 min to remove endogenous GABA and then centrifuged for 10 min at 27,000×g. The pellet is then homogenized in buffer and centrifuged for 10 min at 27,000×g. The final pellet is resuspended in 30 ml buffer and the preparation is frozen and stored at −20° C.
The membrane preparation is thawed and centrifuged at 2° C. for 10 min at 27,000×g. The pellet is washed twice with 20 ml 50 mM Tris-citrate, pH 7.1 using an Ultra-Turrax homogeniser and centrifuged for 10 min at 27,000×g. The final pellet is resuspended in 50 mM Tris-citrate, pH 7.1 (500 ml buffer per g of original tissue), and then used for binding assays. Aliquots of 0.5 ml tissue are added to 25 μl of test solution and 25 μl of ^3H-FNM (1 nM, final concentration), mixed and incubated for 40 min at 2° C. Non-specific binding is determined using Clonazepam (1 μM, final concentration). After incubation the samples are added 5 ml of ice-cold buffer and poured directly onto Whatman GF/C glass fibre filters under suction and immediately washed with 5 ml ice-cold buffer. The amount of radioactivity on the filters is determined by conventional liquid scintillation counting. Specific binding is total binding minus non-specific binding.
25-75% inhibition of specific binding must be obtained, before calculation of an IC50.
The test value will be given as IC50 (the concentration (μM) of the test substance which inhibits the specific binding of ^3H-FNM by 50%).
Co is specific binding in control assays, and […]

Row | SMILES | melting point [°C] | IC50 [1] [nM]
1 | Cc1noc(-c2cn(-c3cccc(Br)c3)cn2)n1 | 200.1 to 202.4 | 
2 | Cc1noc(-c2cn(-c3cccc(-c4ccc(F)nc4)c3)cn2)n1 [2-Fluoro-5-{3-[4-(3-methyl-[1,2,4]oxadiazol-5-yl)-imidazol-1-yl]-phenyl}-pyridine] |  | 60
3 | Cc1noc(-c2cn(-c3cccc(-c4ccccc4F)c3)cn2)n1 [3-Methyl-5-[1-(2′-fluoro-biphenyl-3-yl)-1H-imidazol-4-yl]-[1,2,4]oxadiazole] |  | 33
4 | Cc1noc(-c2cn(-c3cccc(-c4ccccc4OC(F)(F)F)c3)cn2)n1 [3-Methyl-5-[1-(2′-trifluoromethoxy-biphenyl-3-yl)-1H-imidazol-4-yl]-[1,2,4]oxadiazole] | 141.6 to 143.9 | 17

Reference: US7858649B2, “Imidazole derivatives and their use for modulating the GABAA receptor complex” (Neurosearch A/S, priority 2005, dated 2010)
